Converted amounts (≈) assume the structure as drawn.
Columns and labels:
[1] = system: A. baumannii; assay: Starvation-induced tolerance assay, A. baumannii; type: cell-based, Acinetobacter baumannii
Protocol: (§1) Tolerance assay. […] Standard serial dilution and plating on LB agar was performed before and after ampicillin treatment for 4 hrs, 2 days, 4 days and 6 days to determine the fraction of the test population that survived at different time points during the course of treatment.
(§2) Standard serial dilution and plating on LB agar was performed on samples collected every 24 hrs to assess changes in the size of the sub-population that survived during the treatment process.
(§3) Upon reaching the exponential phase, bacteria were washed and re-suspended in saline (0.9% NaCl), and then incubated at 37° C. under constant shaking (250 rpm/min) for 24 hrs. […] Standard serial dilution and plating on LB agar were performed before and after ampicillin treatment for 4 hrs, 1 day, 2 days and 4 days to determine the fraction of the test population that survived at different time points during the course of treatment.

[2] = general statement; cited from earlier work
[3] = system: P. aeruginosa; assay: Membrane potential assay DiSC3(5), P. aeruginosa; type: cell-based, Pseudomonas aeruginosa; conditions: econazole 40 μM, cells starved 24 hrs
Protocol: (§4) Assessment of effect of econazole on membrane potential. Fluorometric measurement of membrane potential of bacterial cells was performed using the voltage-sensitive dye DiSC3(5). The test organisms were first subjected to starvation for 24 hrs and then centrifuged and washed twice with PBS. The cell pellet was resuspended in PBS containing 100 mM of KCl to a final concentration of OD 0.2. The cells were incubated with 1 μM of DiSC3(5) for 5 min under shaking in dark. The cells were treated with econazole (40 μM); a no treatment control was included. The fluorometric measurements were carried out on black polystyrene microtiter plates using a Clariostar Microplate Reader (BMG LABTECH), with excitation wavelength at 610 nm and emission wavelength at 660 nm.

[4] = system: P. aeruginosa; assay: Starvation-induced tolerance assay, P. aeruginosa; type: cell-based, Pseudomonas aeruginosa
Protocol: as §1, §2, §3

[5] = system: E. coli BW25113; assay: Mouse deep-seated thigh infection model; type: in vivo, Escherichia coli
Protocol: NIH mice were purchased from the Guangdong Center for Experimental Animals, Guangzhou, China. Male mice at ˜6 weeks of age with a weight of ˜20 g were used in the experiments, 6 mice per group. The animals were allowed to acclimate to the housing facility for 5 days. The mice were made neutropenic by administering 150 mg/kg cyclophosphamide 3 days and 1 day before infection. An inoculum of 1×10^6 CFU of E. coli BW25113 was injected into the right thigh of the mouse. At 24 hrs post-infection, the mice in each group received ceftazidime (20 mg/kg), econazole (20 mg/kg) or ceftazidime combining econazole treatment (i.p.) every 12 hrs for 72 hrs randomly. The mice were then euthanized and the infected thighs were aseptically excised and homogenized in PBS; the number of E. coli present in the samples was enumerated by serial dilution, spreading on LB plates, and incubation at 37° C. overnight. The population size of bacteria that survived different treatments was recorded, compared and analyzed by one-way ANOVA and post hoc Tukey test. The data were presented by using the Graph Pad Prism software. All experimental protocols followed the standard operating procedures of the Biosafety level 2 animal facilities approved by the Animal Ethics Committee of The City University of Hong Kong.

[6] = system: E. coli tolerant cells; assay: Scanning electron microscopy of tolerant cells; type: cell-based, Escherichia coli; conditions: for cell morphology under SEM: 24 hours
Protocol: Electron microscopy analysis. E. coli which had been subjected to starvation for 24 hours were treated with econazole alone, ampicillin alone and a combination of econazole and ampicillin for 24 hours, followed by examination under scanning electron microscopy (SEM). Cells treated with saline were included as negative control. Briefly, bacterial cells were fixed in 0.4% polyoxymethylene overnight and then in Osmium tetroxide (OsO4) for 2 hrs, followed by washing for three times with PBS. The cells were then dehydrated using pure ethanol, and infiltrated and embedded in Spurr resin for examination by SEM.

[7] = system: Gram negative strains; assay: Minimal inhibitory concentration, Gram negative strains; type: cell-based; conditions: all Gram negative test strains
From the text: (§5) Determination of Minimal Inhibitory Concentrations (MICs).

[8] = system: S. aureus; assay: Starvation-induced tolerance assay, S. aureus; type: cell-based, Staphylococcus aureus
Protocol: as §1, §2, §3

[9] = system: S. typhimurium; assay: Starvation-induced tolerance assay, S. typhimurium; type: cell-based
Protocol: as §1, §2, §3

[10] = system: carbapenem resistant E. coli J53 strain which expressed the carbapenemase NDM-1; assay: Starvation-induced tolerance assay, carbapenem-resistant E. coli; type: cell-based, Escherichia coli; conditions: econazole + sub-lethal dose of meropenem (40 μg/ml), nutrient starvation
Protocol: Upon reaching the exponential phase, bacteria were washed and re-suspended in saline (0.9% NaCl), and then incubated at 37° C. under constant shaking (250 rpm/min) for 24 hrs. […]

[11] = system: E. coli; assay: Membrane potential assay DiSC3(5), E. coli; type: cell-based, Escherichia coli; conditions: econazole 40 μM, cells starved 24 hrs
Protocol: Membrane potential assay. The transmembrane electrical potential was measured by using a membrane potential-sensitive probe, DiSC3(5). Bacterial population in either the exponential phase (OD600 of 0.2) or under 24 hrs starvation (resuspended in saline) were collected by centrifugation (6000×g, 2 mins), washed twice and re-suspended in PBS (pH 7.4), and then adjusted to OD600 of 0.2. KCl and DiSC3(5) were added until final concentration of 100 mM and 1 μM was respectively reached, followed by incubation at room temperature for 25 mins in the dark to allow the dye to penetrate through the outer membrane and produce a quenching effect. […] The fluorescence reading was monitored by using a Clariostar Microplate Reader (BMG LABTECH) at an excitation wavelength of 622±10 nm and an emission wavelength of 670±10 nm for 10 mins. Upon depolarization, the dye was rapidly released into the medium, resulting in dequenching and facilitating detection fluorometrically. […] The sample preparation method is same as that prior to testing with the Microplate Reader except for the last step. Briefly, cells were washed with PBS three times before confocal observation to remove extracellular DiSC3(5) dye. […] DiSC3(5) was excited by 638 nm laser and fluorescence was detected by HyD detector at emission wavelength 675±25 nm. The images were acquired and analyzed by the Leica Application Suite X (LAS X) software. […]

[12] = system: S. aureus; assay: Membrane potential assay DiSC3(5), S. aureus; type: cell-based, Staphylococcus aureus; conditions: econazole 40 μM, cells starved 24 hrs
Protocol: as §4

[13] = system: S. aureus ATCC29213; assay: Minimal inhibitory concentration, S. aureus; type: cell-based; conditions: Staphylococcus aureus, 16 hours, Mueller Hinton Broth
From the text: as §5

[14] = system: E. coli J53 (mcr-1); assay: MIC of colistin in presence and absence of compound, broth dilution; type: cell-based, Escherichia coli; conditions: antibiotic resistant E. coli (FIG. 20)
[15] = system: K. pneumoniae; assay: Starvation-induced tolerance assay, K. pneumoniae; type: cell-based, Klebsiella pneumoniae
Protocol: as §1, §2, §3

[16] = system: S. typhimurium PY1; assay: Mouse peritonitis infection (tolerance sepsis) model; type: in vivo
Protocol: NIH male mice of about six-weeks-old with body weight of ˜20 g were used, 6 mice per group. The animals were allowed to acclimate to the housing facility for 5 days. The mice were made neutropenic by administering 150 mg/kg cyclophosphamide 3 days and 1 day before infection. Different amounts of S. typhimurium strain PY01 (2.8×10^5 CFU, 7.6×10^5 CFU or 1.5×10^6 CFU) were inoculated into the animals via intraperitoneal injection. The mice were subjected to ceftazidime (20 mg/kg), econazole (20 mg/kg) or ceftazidime combining econazole treatment (i.p.) 24 h after inoculation, at 12 hrs intervals for 72 hrs randomly. The mortality rate of the test mice was recorded every 12 hrs. After 72 h of treatment, live mice were euthanized and subjected to peritoneal washes which involved injection of 2 mL of saline into the intraperitoneal space, followed by abdominal massage. The abdomen was then cut open and 200 μL of peritoneal fluid were collected and serially diluted in saline. A 100 μL portion of each dilution was spread on LB plates, followed by incubation overnight at 37° C. Colonies were counted to determine the bacterial load in the test samples, which were expressed as CFU/ml. Statistical analysis and ethic approval were the same as described above.

[17] = system: E. coli BW25113; assay: Starvation-induced tolerance assay, wild type E. coli; type: cell-based, Escherichia coli
Protocol: as §1, §2, §3

Clc1ccc(COC(Cn2ccnc2)c2ccc(Cl)cc2Cl)cc1 (stereo not drawn) [econazole]
effect of co-administration with ampicillin ([1]; econazole + ampicillin): pronounced bactericidal synergistic effect
time to eradication of the entire tolerant sub-population ([1]; econazole + ampicillin): ≤ 24 h
killing of tolerant cells ([1]; econazole alone, 40 μM): slight killing effect
toxicity or safety in human [2]: proven safe
effect on PMF (DiSC3(5) fluorescence) [3]: caused dissipation of PMF
effect of co-administration with ampicillin ([4]; econazole + ampicillin): pronounced bactericidal synergistic effect
time to eradication of the tolerant sub-population ([4]; econazole + ampicillin): ≤ 96 h
killing of tolerant cells ([4]; econazole alone, 40 μM): slight killing effect
eradication of E. coli tolerant cells compared with ceftazidime (20 mg/Kg) alone ([5]; econazole 20 mg/kg + ceftazidime 20 mg/Kg i.p. every 12 hrs for 72 hrs, P=0.031): significantly more
eradication of E. coli tolerant cells compared with ceftazidime (20 mg/Kg) alone ([5]; econazole alone 20 mg/kg i.p. every 12 hrs for 72 hrs, P=0.026): significantly more
cell morphology under SEM ([6]; econazole 40 μM + ampicillin 100 μg/ml): cell membrane structure was severely damaged
cell morphology under SEM ([6]; econazole 40 μM alone): rough cell surface, as well as leakage of intracellular material
membrane damage or morphological changes ([6]; econazole, exponentially growing cells (data not shown)): not found to cause any detectable membrane damage or morphological changes
MIC [7]: > 160 µM
effect of co-administration with ampicillin ([8]; econazole + ampicillin): pronounced bactericidal synergistic effect
time to eradication of tolerant cells ([8]; econazole alone, 40 μM): ≤ 96 h
effect of co-administration with ampicillin ([9]; econazole + ampicillin): pronounced bactericidal synergistic effect
time to eradication of the tolerant sub-population ([9]; econazole + ampicillin): ≤ 96 h
size of the tolerant population ([9]; econazole + ceftazidime (100 μg/ml), within 96 hrs (FIG. 16F)): ~500 CFU/mL
killing of tolerant cells ([9]; econazole alone, 40 μM): slight killing effect
effect on the tolerant sub-population [10]: eradicate the tolerant sub-population
effect on PMF (DiSC3(5) fluorescence) [11]: caused dissipation of PMF
effect on PMF (DiSC3(5) fluorescence) [12]: caused dissipation of PMF
MIC [13]: 40 µM (≈ 15.3 µg/mL)
effect of co-administration with colistin [14]: bactericidal synergistic effect
effect of co-administration with ampicillin ([15]; econazole + ampicillin): pronounced bactericidal synergistic effect
time to eradication of the entire tolerant sub-population ([15]; econazole + ampicillin): ≤ 24 h
killing of tolerant cells ([15]; econazole alone, 40 μM): slight killing effect
protection of the test animals compared with ceftazidime alone ([16]; ceftazidime + econazole (20 mg/kg each), inoculation of 7.6×10^5 CFU): slightly more effective
rate of eradication of PY1 tolerant cells in surviving mice ([16]; ceftazidime + econazole, 7.6×10^5 CFU, after 72 h, P<0.0001): significantly higher
survival rate ([16]; econazole 20 mg/kg + ceftazidime 20 mg/Kg, 1.5×10^6 CFU): 80%
time to eradication of the entire tolerant population ([17]; econazole 40 μM + ampicillin 10×MIC): 24 h
effect of co-administration with ampicillin ([17]; econazole + ampicillin, E. coli): pronounced bactericidal synergistic effect
treatment time at which all tolerant cells were killed ([17]; econazole + ciprofloxacin (1 μg/ml)): 24 h
size of bacterial population that survived ([17]; econazole + ciprofloxacin (1 μg/ml), 4 hrs): about 200 CFU/mL
treatment time at which all tolerant cells were killed ([17]; econazole + gentamicin (20 μg/ml)): 24 h
size of bacterial population that survived ([17]; econazole + gentamicin (20 μg/ml), 4 hrs): about 200 CFU/mL
size of the population that survived ([17]; econazole alone, 4 hrs): about 1.7×10^5 CFU/mL
population size ([17]; econazole alone, 24 hrs): ~1×10^4 CFU/mL
